Source: US10954221B2, “GLP-1R agonists and uses thereof” (QILU REGOR THERAPEUTICS INC., priority 2019, dated 2021)

Target: GLP1R (Homo sapiens, UniProt P43220)
Experiment: GLP1R cAMP assay (HTRF), HEK293/GLP-1R/CRE/Luc, Clone 4
Procedure: GLP-1R-mediated agonist activity was determined with a cell-based functional assay utilizing an HTRF (Homogeneous Time-Resolved Fluorescence) cAMP detection kit (cAMP Dynamic 2 Assay Kit; CisBio cat #62AM4PEC) that measures cAMP levels in the cell. The method is a competitive immunoassay between native cAMP produced by the cells and exogenous cAMP labeled with the dye d2. The tracer binding is visualized by a mAb anti-cAMP labeled with Cryptate. The specific signal (i.e., energy transfer) is inversely proportional to the concentration of cAMP in either standard or experimental sample.
The human GLP-1R coding sequence (NCBI Reference Sequence NM_002062) was subcloned into pcDNA3.1+/Hygro vector (Invitrogen) and transfected into HEK293/CRE/Luc parental cell line. A cell line stably expressing the receptor was isolated.
Varying concentrations of each compound to be tested (in DMSO) were diluted in DMSO to obtain 200× compound working solution first and then 50 nl compounds were added to a white 384-well assay plate (Greiner 784075) with ECHO. The final DMSO concentration was 0.5%.
Cells were removed from cryopreservation, re-suspended in 5 mL of Dulbecco's Phosphate Buffered Saline (DPBS-Sigma Cat #D8537) and centrifuged at 900×g for 5 min at 22° C. The cell pellet was then re-suspended in 1 mL of assay buffer [DPBS with 500 μM IBMX (Sigma #15879) and 0.1% BSA (Sigma #A1933). IBMX and BSA were freshly added on the day of assay]. A 10 μL sample of the cell suspension was counted on an Invitrogen Countess II to determine cell viability and cell count per mL. The remaining cell suspension was then adjusted with assay buffer to deliver 1000 viable cells per well using a Matrix Combi Multidrop reagent dispenser. 10 μL cell suspensions were added to each well
of the assay plate which already contains compound. The plate was sealed and incubated at 37° C. with 5% CO2 for 30 minutes.
Following the 30 minute incubation, 5 μL of labeled d2 cAMP and 5 μL of anti-cAMP antibody (both diluted 1:20 in cell lysis buffer; as described in the manufacturer's assay protocol) were added to each well of the assay plate. The plates were then incubated at room temperature and after 60 minutes, changes in the HTRF signal were read with an Envision multi-label plate reader using excitation of 330 nm and emissions of 615 and 665 nm. Raw data were converted to nM cAMP by interpolation from a cAMP standard curve (as described in the manufacturer's assay protocol) and the percent effect was determined relative to a saturating concentration of the full agonist GLP-17-37 (10 nM) included on each plate. EC50 determinations were made from agonist dose-response curves analyzed with a curve fitting program using a 4-parameter logistic dose response equation.

Chain of GLP1R (P43220 24-463): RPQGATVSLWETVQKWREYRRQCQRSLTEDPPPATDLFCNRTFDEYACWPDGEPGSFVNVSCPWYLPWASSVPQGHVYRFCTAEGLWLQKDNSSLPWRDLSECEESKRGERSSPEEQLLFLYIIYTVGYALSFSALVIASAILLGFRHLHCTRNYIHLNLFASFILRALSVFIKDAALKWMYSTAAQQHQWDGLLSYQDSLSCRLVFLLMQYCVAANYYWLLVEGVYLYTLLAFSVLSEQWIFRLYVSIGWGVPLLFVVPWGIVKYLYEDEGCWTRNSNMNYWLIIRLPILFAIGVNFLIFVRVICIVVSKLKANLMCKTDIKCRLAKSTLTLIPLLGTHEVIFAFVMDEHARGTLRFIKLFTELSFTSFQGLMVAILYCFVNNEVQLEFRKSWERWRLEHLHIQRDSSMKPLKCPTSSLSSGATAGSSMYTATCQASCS

| Compound | EC50 [nM] |
| --- | --- |
| O=C(O)c1ccc2nc(Cc3ccc(-c4nc(OCc5ccc(Cl)cc5F)ccc4F)cc3F)n(C[C@@H]3CCO3)c2c1 [Compound 92, (S)-2-(4-(6-((4-chloro-2-fluorobenzyl)oxy)-3-fluoropyridin-2-yl)-2-fluorobenzyl)-1-(oxetan-2-ylmethyl)-1H-benzo[d]imidazole-6-carboxylic acid] | < 15 |
| O=C(O)c1ccc2nc(CN3CC=C(c4nc(OCc5ccc(Cl)cc5F)cs4)CC3)n(C[C@@H]3CCO3)c2c1 [Compound 246, (S)-2-((4-(4-((4-chloro-2-fluorobenzyl)oxy)thiazol-2-yl)-3,6-dihydropyridin-1(2H)-yl)methyl)-1-(oxetan-2-ylmethyl)-1H-benzo[d]imidazole-6-carboxylic acid] | 15 to 150 |
| O=C(O)c1ccc2nc(CN3CC=C(c4coc(OCc5ccc(Cl)cc5F)n4)CC3)n(C[C@@H]3CCO3)c2c1 [Compound 248, (S)-2-((4-(2-((4-chloro-2-fluorobenzyl)oxy)oxazol-4-yl)-5,6-dihydropyridin-1(2H)-yl)methyl)-1-(oxetan-2-ylmethyl)-1H-benzo[d]imidazole-6-carboxylic acid] | > 1000 |
| O=C(O)c1ccc2nc(CN3CC=C(c4csc(OCc5ccc(C#CC6CC6)cc5F)n4)CC3)n(C[C@@H]3CCO3)c2c1 [Compound 249, (S)-2-((4-(2-((4-(cyclopropylethynyl)-2-fluorobenzyl)oxy)thiazol-4-yl)-3,6-dihydropyridin-1(2H)-yl)methyl)-1-(oxetan-2-ylmethyl)-1H-benzo[d]imidazole-6-carboxylic acid] | 15 to 150 |
| O=C(O)c1ccc2nc(CN3CC=C(c4csc(OCc5ccc(Cl)cn5)n4)CC3)n(C[C@@H]3CCO3)c2c1 [Compound 250, (S)-2-((4-(2-((5-chloropyridin-2-yl)methoxy)thiazol-4-yl)-3,6-dihydropyridin-1(2H)-yl)methyl)-1-(oxetan-2-ylmethyl)-1H-benzo[d]imidazole-6-carboxylic acid] | 15 to 150 |
| O=C(O)c1ccc2nc(CN3CC=C(c4csc(OCc5ccc(OC(F)(F)F)cc5)n4)CC3)n(C[C@@H]3CCO3)c2c1 [Compound 251, (S)-1-(oxetan-2-ylmethyl)-2-((4-(2-((4-(trifluoromethoxy)benzyl)oxy)thiazol-4-yl)-3,6-dihydropyridin-1(2H)-yl)methyl)-1H-benzo[d]imidazole-6-carboxylic acid] | 15 to 150 |
| O=C(O)c1ccc2nc(CN3CC=C(c4csc(OCc5ccc(F)cc5F)n4)CC3)n(C[C@@H]3CCO3)c2c1 [Compound 252, (S)-2-((4-(2-((2,4-difluorobenzyl)oxy)thiazol-4-yl)-3,6-dihydropyridin-1(2H)-yl)methyl)-1-(oxetan-2-ylmethyl)-1H-benzo[d]imidazole-6-carboxylic acid] | 15 to 150 |
| O=C(O)c1ccc2nc(CN3CC=C(c4csc(OCc5ccc(Br)cn5)n4)CC3)n(C[C@@H]3CCO3)c2c1 [Compound 253, (S)-2-((4-(2-((5-bromopyridin-2-yl)methoxy)thiazol-4-yl)-3,6-dihydropyridin-1(2H)-yl)methyl)-1-(oxetan-2-ylmethyl)-1H-benzo[d]imidazole-6-carboxylic acid] | 15 to 150 |
| O=C(O)c1ccc2nc(CN3CC=C(c4csc(OCc5ccc(F)cc5Cl)n4)CC3)n(C[C@@H]3CCO3)c2c1 [Compound 254, (S)-2-((4-(2-((2-chloro-4-fluorobenzyl)oxy)thiazol-4-yl)-3,6-dihydropyridin-1(2H)-yl)methyl)-1-(oxetan-2-ylmethyl)-1H-benzo[d]imidazole-6-carboxylic acid] | 15 to 150 |
| O=C(O)c1ccc2nc(CN3CC=C(c4csc(OCc5ccc(C(F)(F)F)nc5)n4)CC3)n(C[C@@H]3CCO3)c2c1 [Compound 255, (S)-1-(oxetan-2-ylmethyl)-2-((4-(2-((6-(trifluoromethyl)pyridin-3-yl)methoxy)thiazol-4-yl)-3,6-dihydropyridin-1(2H)-yl)methyl)-1H-benzo[d]imidazole-6-carboxylic acid] | 15 to 150 |
| O=C(O)c1ccc2nc(CN3CC=C(c4csc(OCc5ccc(C(F)(F)F)cc5)n4)CC3)n(C[C@@H]3CCO3)c2c1 [Compound 256, (S)-1-(oxetan-2-ylmethyl)-2-((4-(2-((4-(trifluoromethyl)benzyl)oxy)thiazol-4-yl)-3,6-dihydropyridin-1(2H)-yl)methyl)-1H-benzo[d]imidazole-6-carboxylic acid] | 15 to 150 |
| O=C(O)c1ccc2nc(Cc3ccc(-c4cccc(OCc5ccc(Cl)cc5F)n4)cc3Cl)n(C[C@@H]3CCO3)c2c1 [Compound 258, (S)-2-(2-chloro-4-(6-((4-chloro-2-fluorobenzyl)oxy)pyridin-2-yl)benzyl)-1-(oxetan-2-ylmethyl)-1H-benzo[d]imidazole-6-carboxylic acid] | < 15 |
| O=C(O)c1ccc2nc(Cc3ccc(-c4nccc(OCc5ccc(Cl)cc5F)n4)c(F)c3)n(C[C@@H]3CCO3)c2c1 [Compound 259, (S)-2-(4-(4-((4-chloro-2-fluorobenzyl)oxy)pyrimidin-2-yl)-3-fluorobenzyl)-1-(oxetan-2-ylmethyl)-1H-benzo[d]imidazole-6-carboxylic acid] | < 15 |
| O=C(O)c1ccc2nc(Cc3ccc(-c4nc(OCc5ccc(Cl)cc5F)c(F)cc4F)cc3F)n(C[C@@H]3CCO3)c2c1 [Compound 260, (S)-2-(4-(6-(4-chloro-2-fluorobenzyloxy)-3,5-difluoropyridin-2-yl)-2-fluorobenzyl)-1-(oxetan-2-ylmethyl)-1H-benzo[d]imidazole-6-carboxylic acid] | < 15 |
| O=C(O)c1ccc2nc(Cc3ccc(-c4nc(OCc5ccc(Cl)cc5F)ccc4F)c(F)c3)n(C[C@@H]3CCO3)c2c1 [Compound 261, (S)-2-(4-(6-(4-chloro-2-fluorobenzyloxy)-3-fluoropyridin-2-yl)-3-fluorobenzyl)-1-(oxetan-2-ylmethyl)-1H-benzo[d]imidazole-6-carboxylic acid] | < 15 |
| N#Cc1ccc(COc2nc(-c3ccc(Cc4nc5ccc(C(=O)O)cc5n4C[C@@H]4CCO4)c(F)c3)ccc2F)c(F)c1 [Compound 264, (S)-2-(4-(6-((4-cyano-2-fluorobenzyl)oxy)-5-fluoropyridin-2-yl)-2-fluorobenzyl)-1-(oxetan-2-ylmethyl)-1H-benzo[d]imidazole-6-carboxylic acid] | < 15 |
| O=C(O)c1ccc2nc(Cc3ccc(-c4cncc(OCc5ccc(Cl)cc5F)n4)cc3F)n(C[C@@H]3CCO3)c2c1 [Compound 265, (S)-2-(4-(6-((4-chloro-2-fluorobenzyl)oxy)pyrazin-2-yl)-2-fluorobenzyl)-1-(oxetan-2-ylmethyl)-1H-benzo[d]imidazole-6-carboxylic acid] | < 15 |
| N#Cc1ccc(COc2ccc(F)c(-c3ccc(Cc4nc5ccc(C(=O)O)cc5n4C[C@@H]4CCO4)c(F)c3)n2)c(F)c1 [Compound 268, (S)-2-(4-(6-((4-cyano-2-fluorobenzyl)oxy)-3-fluoropyridin-2-yl)-2-fluorobenzyl)-1-(oxetan-2-ylmethyl)-1H-benzo[d]imidazole-6-carboxylic acid] | < 15 |
| O=C(O)c1ccc2nc(Cc3cc(F)c(-c4cccc(OCc5ccc(Cl)cn5)n4)cc3F)n(C[C@@H]3CCO3)c2c1 [Compound 269, (S)-2-(4-(6-((5-chloropyridin-2-yl)methoxy)pyridin-2-yl)-2,5-difluorobenzyl)-1-(oxetan-2-ylmethyl)-1H-benzo[d]imidazole-6-carboxylic acid] | < 15 |
| Cc1cc(Cc2nc3ccc(C(=O)O)cc3n2C[C@@H]2CCO2)ccc1-c1cccc(OCc2ccc(Cl)cc2F)n1 [Compound 270, (S)-2-(4-(6-((4-chloro-2-fluorobenzyl)oxy)pyridin-2-yl)-3-methylbenzyl)-1-(oxetan-2-ylmethyl)-1H-benzo[d]imidazole-6-carboxylic acid] | < 15 |
| O=C(O)c1ccc2nc(Cc3cc(F)c(-c4ncc(F)c(OCc5ncc(Cl)cc5F)n4)cc3F)n(C[C@@H]3CCO3)c2n1 [Compound 273, (S)-2-(4-(4-((5-chloro-3-fluoropyridin-2-yl)methoxy)-5-fluoropyrimidin-2-yl)-2,5-difluorobenzyl)-3-(oxetan-2-ylmethyl)-3H-imidazo[4,5-b]pyridine-5-carboxylic acid] | < 15 |
| O=C(O)c1ccc2nc(Cc3ccc(-c4cccc(OCc5ccc(F)cc5F)n4)cc3F)n(C[C@@H]3CCO3)c2c1 [Compound 274, (S)-2-(4-(6-((2,4-difluorobenzyl)oxy)pyridin-2-yl)-2-fluorobenzyl)-1-(oxetan-2-ylmethyl)-1H-benzo[d]imidazole-6-carboxylic acid] | < 15 |
| N#Cc1ccc(COc2nc(-c3cc(F)c(Cc4nc5ccc(C(=O)O)cc5n4C[C@@H]4CCO4)cc3F)ncc2F)nc1 [Compound 275, (S)-2-(4-(4-((5-cyanopyridin-2-yl)methoxy)-5-fluoropyrimidin-2-yl)-2,5-difluorobenzyl)-1-(oxetan-2-ylmethyl)-1H-benzo[d]imidazole-6-carboxylic acid] | < 15 |
| N#Cc1ccc(COc2cccc(-c3ccc(Cc4nc5ccc(C(=O)O)nc5n4C[C@@H]4CCO4)c(F)c3)n2)c(F)c1 [Compound 282, (S)-2-(4-(6-((4-cyano-2-fluorobenzyl)oxy)pyridin-2-yl)-2-fluorobenzyl)-3-(oxetan-2-ylmethyl)-3H-imidazo[4,5-b]pyridine-5-carboxylic acid] | < 15 |
| O=C(O)c1ccc2nc(Cc3ccc(-c4ccc(F)c(OCc5ccc(Cl)cc5F)n4)cc3F)n(C[C@@H]3CCO3)c2n1 [Compound 283, (S)-2-(4-(6-(4-chloro-2-fluorobenzyloxy)-5-fluoropyridin-2-yl)-2-fluorobenzyl)-3-(oxetan-2-ylmethyl)-3H-imidazo[4,5-b]pyridine-5-carboxylic acid] | < 15 |
| O=C(O)c1ccc2nc(Cc3ccc(-c4cccc(OCc5ccc(F)cc5F)n4)cc3F)n(C[C@@H]3CCO3)c2n1 [Compound 286, (S)-2-(4-(6-((2,4-difluorobenzyl)oxy)pyridin-2-yl)-2-fluorobenzyl)-3-(oxetan-2-ylmethyl)-3H-imidazo[4,5-b]pyridine-5-carboxylic acid] | < 15 |
| Cc1cc(-c2cccc(OCc3ccc(Cl)cc3F)n2)ccc1Cc1nc2ccc(C(=O)O)cc2n1C[C@@H]1CCO1 [Compound 295, (S)-2-(4-(6-((4-chloro-2-fluorobenzyl)oxy)pyridin-2-yl)-2-methylbenzyl)-1-(oxetan-2-ylmethyl)-1H-benzo[d]imidazole-6-carboxylic acid] | < 15 |
